According to patent US20230210732A1, “REDUCTIVE TEETH WHITENING UTILIZING SALTS OF DITHIONITE” (CAO Group, Inc., priority 2022, published 2023):

Experiment: whitening of stained extracted teeth, color scored against a classical VITA shade guide
Details: for tooth whitening (color vs classical VITA shade guide): teeth left in solution overnight, all teeth
Source text: To evaluate these solutions, a collection of extracted teeth was examined and selected for dark color stains ranging from light yellow to brown. These teeth were then categorized and scored for color by comparing to a classical VITA shade guide. Then half of the teeth were then placed in a fresh solution of 15% sodium dithionite in water with unadjusted pH. The second half were placed in the solution adjusted to above pH 10. All teeth became whiter after remaining in solution overnight, especially light yellow to yellow stained teeth.

O=S([O-])S(=O)[O-].[Na+].[Na+] [sodium dithionite]
tooth whitening of brown stained teeth (15% sodium dithionite in water (unadjusted pH or above pH 10), overnight, brown teeth, less effect than light yellow to yellow teeth): whitened significantly
tooth whitening (color vs classical VITA shade guide) (15% sodium dithionite solution adjusted to above pH 10): became whiter
tooth whitening (color vs classical VITA shade guide) (fresh solution of 15% sodium dithionite in water, unadjusted pH): became whiter
